Reference: PMC6271395, “Synthesis and Biological Activities of Some New (N^α-Dinicotinoyl)-bis-L-Leucyl Linear and Macrocyclic Peptides” (Molecules, 2014)

Legend:
Staphylococcus aureus = experiment: Agar diffusion antimicrobial test, Staphylococcus aureus; format: cell-based; conditions: Gram+ve, modified Kirby–Bauer disk diffusion, 10 µg/mL
Procedure: (§1) The newly synthesized compounds 3–12 were tested for their preliminary antimicrobial activity against different microorganisms representing Gram-positive (Bacillus subtilis, Bacillus aureus and Staphylococcus aureus), Gram-negative bacteria (Escherichia coli), yeast (Candida albican) and fungi (Aspergillus niger).
(§2) The antimicrobial activities of the synthesized compounds were determined by the agar diffusion method as recommended by the national committee for clinical laboratory standards (NCCLS). The concentrations of the tested compounds (10 µg/mL) were used according to modified Kirby–Bauer’s disk diffusion method. The degree of inhibition is measured in comparison with that of chloramphinicol and fusidic acid taken as standards.

Escherichia coli = experiment: Agar diffusion antimicrobial test, Escherichia coli; format: cell-based; conditions: Gram−ve, modified Kirby–Bauer disk diffusion, 10 µg/mL
Procedure: as §1, §2

Bacillus subtilis = experiment: Agar diffusion antimicrobial test, Bacillus subtilis; format: cell-based; conditions: Gram+ve, modified Kirby–Bauer disk diffusion, 10 µg/mL
Procedure: as §1, §2

Aspergillus niger = experiment: Agar diffusion antimicrobial test, Aspergillus niger; format: cell-based; conditions: Fungi, modified Kirby–Bauer disk diffusion, 10 µg/mL
Procedure: as §1, §2

Bacillus aureus = experiment: Agar diffusion antimicrobial test, Bacillus aureus; format: cell-based; conditions: Gram+ve, modified Kirby–Bauer disk diffusion, 10 µg/mL
Procedure: as §1, §2

Candida albicans = experiment: Agar diffusion antimicrobial test, Candida albicans; format: cell-based; conditions: Yeast, modified Kirby–Bauer disk diffusion, 10 µg/mL
Procedure: as §1, §2

[1] = tested on: carrageenan-induced edema; experiment: Carrageenan-induced edema (rat paw test); format: in vivo; conditions: one hour before carrageenan, male albino rats, eight animals per group, paws excised four hours after drug administration
Procedure: (§3) For the determination of the antiphlogistic potency of the synthesized compounds, two standard tests were realized at a dose level 2.5 and 5 mg/kg body weight of the rats, namely the protection against carrageenan-induced edema according to Winter et al. and the inhibition of plasma PGE2. The latter is known as a good confirming indicator for carrageenan-induced rat paw edema. […] For these compounds, a similar activity profile was realized for the inhibition of plasma PGE2.
(§4) Groups of adult male albino rats (150–180 g), each of eight animals were orally dosed with tested compounds at a dose level of 2.5–5 mg/kg one hour before carrageenan challenge. Foot paw edema was induced by subplantar injection of 0.05 cm^3 of a 1% suspension of carrageenan in saline into the plantar tissue of one hind paw. An equal volume of saline was injected to the other hand paw and served as control. Four hours after drug administration the animals were decapitated, blood was collected, and the paws were rapidly excised. The average weight of edema was examined for the treated as well as the control group and the percentage inhibition of weight of edema was also evaluated. Diclofenac potassium (5 mg/kg) was employed as standard reference against which the tested compounds were compared (Table 2).

plasma PGE2 = experiment: Inhibition of plasma PGE2 (EIA) in carrageenan-challenged rats; format: in vivo, rat; conditions: rats n = 8, blood four hours after drug administration, PGE2 EIA kit
Procedure: as §3, §4
Heparinized blood samples were collected from rats (n = 8), plasma was separated by centrifugation at 12,000 g for 2 min at […], immediately frozen, and stored at […] until use. The design correlate EIA prostaglandin E2 (PGE2) kit (Aldrich, Steinheim, Germany) is a competitive immuno assay for the quantitative determination of PGE2 in biological fluids. The kit uses a monoclonal antibody to PGE2 to bind, in a competitive manner, the PGE2 in the sample after a simultaneous incubation at room temperature. The excess reagents were washed away and the substrate was added, after a short incubation time the enzyme reaction was stopped, and the yellow color generated was read on a microplate reader DYNATech, MR 5000 at 405 nm (Dynatech Industries Inc., McLean, VA, USA). The intensity of the bound yellow color is inversely proportional to the concentration of PGE2 in either standard or samples.

Compound | Inhibition Zome, Staphylococcus aureus (Staphylococcus aureus) [cm] | Inhibition Zome, Escherichia coli (Escherichia coli) [cm] | Inhibition Zome, Bacillus subtilis (Bacillus subtilis) [cm] | Inhibition Zome, Aspergillus niger (Aspergillus niger) [cm] | Inhibition Zome, Bacillus aureus (Bacillus aureus) [cm] | Inhibition Zome, Candida albicans (Candida albicans) [cm] | % Protection against Edema ([1]; dose 2.5 mg/kg oral) [%] | % Protection against Edema ([1]; dose 5.0 mg/kg oral) [%] | % Inhibition of Plasma PGE2 (plasma PGE2; dose 2.5 mg/kg oral) [%] | % Inhibition of Plasma PGE2 (plasma PGE2; dose 5.0 mg/kg oral) [%]
2,6-Bis {N-[1-{(2E)-2-[1-(4-nitrophenyl)ethylidene]hydrazinyl}-4-methyl-1-oxopentan]-3-carboxamido}pyridine [Compound 9c] | 1.66 | 0.60 | 1.72 | 1.76 | 1.22 | – | – | – | – | –
2,6-Bis {N-{(2R)-1-[2-(4-chlorobenzylidene)hydrazinyl]-4-methyl-1-oxopentan]-3-carboxamido}-pyridine [Compound 10e] | 1.80 | 0.78 | 1.65 | 1.48 | 1.96 | 0.94 | – | – | – | –
2,6-Bis {N-{(2R)-1-[2-(4-methoxybenzylidene)hydrazinyl]-4-methyl-1-oxopentan]-3-carboxamido}-pyridine [Compound 10c] | 1.64 | 0.80 | 1.76 | 1.95 | 1.56 | 1.00 | – | – | – | –
2,6-Bis {N-{(2R)-1-[2-(4-methylbenzylidene)hydrazinyl]-4-methyl-1-oxopentan]-3-carboxamido}-pyridine [Compound 10b] | 1.85 | 0.78 | 1.80 | 1.56 | 1.95 | 0.95 | – | – | – | –
2,6-Bis[(N-[4-methyl-1-(1H-benzo[de]isoquinoline-1,3(2H)-dion)-pentan]-3-carboxamido]pyridine [Compound 8] | 1.95 | 0.90 | 1.90 | 2.00 | 1.94 | 0.98 | 78.88 ± 0.090 | 92.00 ± 0.060 | 57.57 ± 0.045 | 76.00 ± 0.035
2,6-Bis[(N-[4-methyl-1-(4,5,6,7-tetrachloro-1H-isoindole-1,3(2H)-dion)-pentan]-3-carboxamido]-pyridine [Compound 7b] | 1.45 | 0.66 | 1.46 | 1.95 | 1.80 | – | – | – | – | –
O=C(N[C@H](CO)[C@H](O)c1ccc([N+](=O)[O-])cc1)C(Cl)Cl [Chloramphenicol, reference compound] | 2.00 | 0.95 | 2.00 | – | 2.10 | – | – | – | – | –
COC(=O)[C@H](CC(C)C)NC(=O)c1cncc(C(=O)N[C@@H](CC(C)C)C(=O)OC)c1 [Compound 3, 3,5-Bis-(Methyl L-Leucenylcarbonyl)pyridine carboxylate] | 1.76 | 0.62 | 1.46 | 1.78 | 1.65 | – | 86.16 ± 0.052 | 98.18 ± 0.053 | 59.45 ± 0.050 | 81.10 ± 0.056
CC(C)C[C@H](NC(=O)c1cncc(C(=O)N[C@@H](CC(C)C)C(=O)NN)c1)C(=O)NN [Compound 4, N^2,N^2′-(Pyridine-3,5-dicarbonyl)-di-L-leucyl hydrazide] | 1.80 | 0.80 | 1.85 | 1.56 | 1.92 | 0.92 | 93.45 ± 0.074 | 98.56 ± 0.060 | 75.66 ± 0.040 | 80.01 ± 0.058
CC(C)C[C@H](NC(=O)c1cncc(C(=O)N[C@@H](CC(C)C)C(=O)O)c1)C(=O)O [Compound 5, N,N′-Bis(1-Carboxy-2-L-leucyl)-3,5-(diaminocarbonyl)pyridine] | 1.76 | 0.64 | 1.68 | 1.72 | 1.14 | – | 85.14 ± 0.056 | 96.18 ± 0.067 | 61.16 ± 0.041 | 77.14 ± 0.036
COC(=O)[C@@H]1CCCCNC(=O)[C@H](CC(C)C)NC(=O)c2cncc(c2)C(=O)N[C@@H](CC(C)C)C(=O)N1 [Compound 6, Cyclo-(Na-dinicotinoyl)-bis-(L-leucyl)-L-lysine methyl ester] | 1.54 | 0.65 | 1.82 | 1.75 | 1.50 | – | 92.14 ± 0.076 | 99.08 ± 0.062 | 84.18 ± 0.052 | 86.01 ± 0.030
CC(C)C[C@H](NC(=O)c1cncc(C(=O)N[C@@H](CC(C)C)C(=O)N/N=C/c2ccccc2)c1)C(=O)N/N=C/c1ccccc1 [Compound 10a] | 1.56 | 0.66 | 1.56 | 1.68 | 1.45 | – | 90.32 ± 0.035 | 99.10 ± 0.036 | 62.12 ± 0.051 | 83.01 ± 0.049
CC(C)C[C@@H]1NC(=O)c2cncc(c2)C(=O)N[C@@H](CC(C)C)C(=O)NN2C(=O)c3ccc4c5c(ccc(c35)C2=O)C(=O)N(NC(=O)[C@H](CC(C)C)NC(=O)c2cncc(c2)C(=O)N[C@@H](CC(C)C)C(=O)NN2C(=O)c3ccc5c6c(ccc(c36)C2=O)C(=O)N(NC1=O)C5=O)C4=O [Compound 12] | 1.65 | 0.64 | 1.65 | 1.58 | 1.83 | – | 90.48 ± 0.090 | 99.36 ± 0.080 | 63.16 ± 0.036 | 86.18 ± 0.071
O=C([O-])Cc1ccccc1Nc1c(Cl)cccc1Cl.[K+] [Diclofenac Potassium, reference compound] | – | – | – | – | – | – | 70.14 ± 0.064 | 75.23 ± 0.083 | 54.00 ± 0.041 | 70.00 ± 0.051
CC(=O)O[C@H]1C[C@@]2(C)[C@@H](C[C@@H](O)[C@H]3[C@@]4(C)CC[C@@H](O)[C@@H](C)[C@@H]4CC[C@@]32C)/C1=C(\CCC=C(C)C)C(=O)O [Fusidic Acid, reference compound] | – | – | – | 1.9 | – | 1.9 | – | – | – | –
